According to paper PMC8347464, “Design, Synthesis, and In Vitro Antiproliferative Activity of Hydantoin and Purine Derivatives with the 4-Acetylphenylpiperazinylalkyl Moiety” (Materials, 2021):

Columns and labels:
[1] = test system: HaCaT cells (human immortal keratinocyte); assay: MTT assay, HaCaT normal cells; format: cell-based; conditions: for IC50: Homo sapiens, HaCaT, MTT, 72 h, mean ± SD, normal cells
Text: (§1) Primary and metastatic colon cancer (SW480, SW620), metastatic prostate cancer (PC3), and human immortal keratinocyte (HaCaT) cell lines and immortal microvascular endothelial cells (HMEC-1) were obtained from the American Type Culture Collection (ATCC, Rockville, USA) and cultured in recommended medium, namely, MEM (Biowest SAS, France) for the SW480 and SW620 cells, RPMI 1640 (Biowest SAS, Nuaillé, France) for PC3, DMEM (Biowest SAS, France) for HaCaT and MCDB 131 (PAN BioTech, Aidenbach, Germany) for HMEC-1. The SW480 and SW620 cell lines were initiated by A. Leibovitz et al. and derived from a human primary colon adenocarcinoma and lymph node metastasis of the same patient. respectively. PC3 cell cells were initiated from a bone metastasis of a human prostatic adenocarcinoma. HaCaT cells were obtained from adult human skin, while HMEC-1 cells were established from the dermis of a human neonate. Cells were cultured in recommended medium supplemented with 10% FBS (Biowest SAS, Nuaillé, France), penicillin (100 U/mL), streptomycin […] (Gibco Life Technologies, Waltham MA, USA) and incubated at 37 °C under 5% CO2. The culture medium of HMEC-1 cells was additionally supplemented with glutamine (1 mM) and microvascular growth supplement (5%) (MVGS; Gibco, USA). The cells were cultured until 80% confluency was reached, harvested by treatment with 0.25% trypsin 0.02% EDTA (Gibco Life Technologies, Waltham, MA, USA) and subsequently used for further experiments.
(§2) Cell viability was estimated using a conversion of 3-(4,5-dimethylthiazol-2-yl)-2,5-diphenyltetrazolium bromide salt (MTT) to insoluble formazan crystals by mitochondrial dehydrogenases, present in living cells. Cells were cultured in 96-well plates (l × 10^4 cells per well) and incubated for 24 h at 37 °C under 5% CO2. Next, the cells were treated with various concentrations of the tested compounds (ranging from 10 to 180 μM) and incubated for 72 h at 37 °C under 5% CO2. Untreated cells were used as the control. Next, the medium was removed, MTT solution (0.5 mg/mL) was added to each well, and the cells were incubated for 4 h at 37 °C under 5% CO2. After that, the obtained formazan crystals were dissolved in DMSO and isopropanol (1:1, v/v). The optical density of the dissolved crystals was measured at a wavelength of 570 nm using a UVM 340 reader (ASYS Hitech GmbH, Austria). Cell viability was presented as a percent of MTT reduced in treated cells versus control cells. The relative MTT level (%) was calculated as [A]/[B] × 100, where [A] is the absorbance of the test sample, and [B] is the absorbance of the control sample. The IC50 value was estimated using CompuSyn version 1.0.

[2] = test system: SW620 cells (human metastatic colon cancer); assay: MTT assay, SW620 cells; format: cell-based; conditions: SW-620, 72 h, mean ± SD
Text: as §1, §2

[3] = test system: PC3 cells (human metastatic prostate cancer); assay: MTT assay, PC3 cells; format: cell-based; conditions: for IC50: Homo sapiens, PC-3, MTT, 72 h, mean ± SD
Text: as §1, §2

[4] = test system: SW480 cells (human primary colon cancer); assay: MTT assay, SW480 cells; format: cell-based; conditions: for IC50: Homo sapiens, SW480, MTT, 72 h, mean ± SD; for effectiveness against SW480 cells (in words): based on IC50, MTT 72 h
Text: as §1, §2

[5] = test system: human erythrocytes; assay: Determination of hemolytic activity; format: cell-based; conditions: 10^−6 or 10^−5 M, 37 °C, 30 min, PBS
Description: The hemolysis experiment was performed according to the previous report and was approved by the Bioethics Commission at the Lower Silesian Medical Chamber (1/PNHAB/2018). Freshly isolated human erythrocytes were incubated with compound 4 dissolved in DMSO (final concentration of 10^−6 or 10^−5 M) in PBS buffer at 37 °C for 30 min. The samples were then centrifuged and the absorbance of hemoglobin in the supernatants was measured at 540 nm. Additionally, negative (erythrocytes in PBS buffer), positive (erythrocytes in distilled water), and DMSO controls were also performed.

[6] = target: T1, E. coli TP (thymidine phosphorylase, TP/PD-ECGF) (Escherichia coli, UniProt P07650); assay: Thymidine phosphorylase inhibition; format: biochemical; conditions: 100 µM screening concentration
T1 construct: purchased Sigma T6632
Description: TP/PD-ECGF (E. coli TP (Sigma T6632)) activity was determined by measuring the absorbance at 290 nm spectrophotometrically, according to the manufacturer′s procedure [25]. Briefly the reaction mixture of 145 µL of potassium phosphate buffer (pH 7.4), 20 µL of 1.5 mM Thymidine 50 monophosphate solution as substrate, and 30 µL of an enzyme (E. coli TP, 0.05 and 0.002 U) was incubated with 5 µL of test materials for 10 min at 25 °C in a 96-well, flat bottom microplate (200 µL). Readings were taking by a microplate reader (SpectraMax Plus384, USA) at 290 nm. The readings were taken continuously after 10, 20, and 30 min by a microplate reader. All assays were performed in triplicate.

[7] = test system: HMEC-1 cells (human immortal microvascular endothelial cells); assay: MTT assay, HMEC-1 normal cells; format: cell-based; conditions: 72 h, mean ± SD
Text: Primary and metastatic colon cancer (SW480, SW620), metastatic prostate cancer (PC3), and human immortal keratinocyte (HaCaT) cell lines and immortal microvascular endothelial cells (HMEC-1) were obtained from the American Type Culture Collection (ATCC, Rockville, USA) and cultured in recommended medium, namely, MEM (Biowest SAS, France) for the SW480 and SW620 cells, RPMI 1640 (Biowest SAS, Nuaillé, France) for PC3, DMEM (Biowest SAS, France) for HaCaT and MCDB 131 (PAN BioTech, Aidenbach, Germany) for HMEC-1. The SW480 and SW620 cell lines were initiated by A. Leibovitz et al. and derived from a human primary colon adenocarcinoma and lymph node metastasis of the same patient. respectively. PC3 cell cells were initiated from a bone metastasis of a human prostatic adenocarcinoma. […]
Cell viability was estimated using a conversion of 3-(4,5-dimethylthiazol-2-yl)-2,5-diphenyltetrazolium bromide salt (MTT) to insoluble formazan crystals by mitochondrial dehydrogenases, present in living cells. […] The optical density of the dissolved crystals was measured at a wavelength of 570 nm using a UVM 340 reader (ASYS Hitech GmbH, Austria). […] The relative MTT level (%) was calculated as [A]/[B] × 100, where [A] is the absorbance of the test sample, and [B] is the absorbance of the control sample. […]

[8] = test system: panel of 60 human cancer cell lines; parameters: method as in PMID 33387732; conditions: dose of 10 µM ref 14; cited from earlier work

T1 sequence (P07650 whole entry): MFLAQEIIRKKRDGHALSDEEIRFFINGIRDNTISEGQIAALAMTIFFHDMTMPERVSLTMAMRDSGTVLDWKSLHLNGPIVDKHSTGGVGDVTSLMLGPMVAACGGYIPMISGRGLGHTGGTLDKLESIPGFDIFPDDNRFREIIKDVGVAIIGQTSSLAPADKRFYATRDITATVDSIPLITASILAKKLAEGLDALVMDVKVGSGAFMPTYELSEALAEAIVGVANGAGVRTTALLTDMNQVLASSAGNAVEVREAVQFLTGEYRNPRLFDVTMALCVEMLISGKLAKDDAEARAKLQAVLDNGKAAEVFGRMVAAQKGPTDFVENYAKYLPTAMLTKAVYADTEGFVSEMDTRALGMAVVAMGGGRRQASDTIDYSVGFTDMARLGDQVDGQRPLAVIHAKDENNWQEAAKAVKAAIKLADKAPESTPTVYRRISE

Structure (SMILES) | melting point [°C] | IC50 [1] [µM] | IC50 [2] [µM] | IC50 [3] [µM] | IC50 [4] [µM] | effectiveness against SW480 cells (in words) [4] | growth-inhibitory potency against PC3 (in words) ([3]; MTT 72 h) | hemolytic activity against human red blood cells [5] | inhibition of thymidine phosphorylase activity [6] [%] | IC50 [7] [µM] | cytotoxic effect on HaCaT (in words) ([1]; 72-h exposure) | growth inhibition (in words) [8]
CC(=O)c1ccc(N2CCN(CCCCN3C(=O)NC4(CCc5ccccc54)C3=O)CC2)cc1 (racemic) [Compound 1, (R,S)-1-(4-(4-(4-Acetylphenyl)piperazin-1-yl)butyl)-2′,3′-dihydrospiro[imidazolidine-4,1′-indene]-2,5-dione] | 180.2 to 181.3 | 41.8 ± 7.62 | 67 ± 5.24 | 57.6 ± 5.86 | 54.2 ± 3.89 | effective | – | – | – | – | – | –
CC(=O)c1ccc(N2CCN(CCCCCN3C(=O)NC4(CCc5ccccc54)C3=O)CC2)cc1 (racemic) [Compound 2, (R,S)-1-(5-(4-(4-Acetylphenyl)piperazin-1-yl)pentyl)-2′,3′-dihydrospiro[imidazolidine-4,1′-indene]-2,5-dione] | 155.3 to 156.2 | 22.6 ± 2.69 | 43.1 ± 4.41 | 36.2 ± 4.98 | 40.7 ± 3.54 | effective | moderate growth-inhibitory potency | – | – | – | – | –
CC(=O)c1ccc(N2CCN(CCCCN3C(=O)NC4(CCCc5ccccc54)C3=O)CC2)cc1 (racemic) [Compound 3, (R,S)-1-(4-(4-(4-Acetylphenyl)piperazin-1-yl)butyl)-3′,4′-dihydro-2′H-spiro[imidazolidine-4,1′-naphthalene]-2,5-dione] | 168.8 to 170.2 | 114 ± 8.93 | 104 ± 7.36 | 64.5 ± 6.76 | 129 ± 10.8 | – | – | – | – | – | – | –
CC(=O)c1ccc(N2CCN(CCCCCN3C(=O)NC4(CCCc5ccccc54)C3=O)CC2)cc1 (racemic) [Compound 4, (R,S)-1-(5-(4-(4-Acetylphenyl)piperazin-1-yl)pentyl)-3′,4′-dihydro-2′H-spiro[imidazolidine-4,1′-naphthalene]-2,5-dione] | 134.3 to 135.1 | 36.8 ± 5.32 | 12.9 ± 3.16 | 20.6 ± 3.35 | 16.8 ± 2.37 | effective | – | no hemolytic activity | 21.21 | 149 ± 10.6 | no significant cytotoxic effect | –
CC(=O)c1ccc(N2CCN(CCCCN3C(=O)NC4(Cc5ccccc5C4)C3=O)CC2)cc1 [Compound 5, (R,S)-1-{4-[4-(4-Acetylophenyl)piperazyn-1-yl]butyl}-1′,3′-dihydro-2H,5H-spiro[imidazolidine-4,2′-indene]-2,5-dione] | 213.8 to 214.9 | > 200 | > 200 | > 200 | 102 ± 2.37 | – | – | – | – | – | – | –
CC(=O)c1ccc(N2CCN(CCCCCN3C(=O)NC4(Cc5ccccc5C4)C3=O)CC2)cc1 [Compound 6, (R,S)-1-{5-[4-(4-Acetylophenyl)piperazyn-1-yl]pentyl}-1′,3′-dihydro-2H,5H-spiro[imidazolidine-4,2′-indene]-2,5-dione] | 157.4 to 157.7 | 159 ± 14.1 | 78.3 ± 4.76 | 95.1 ± 8.4 | 53.7 ± 7.78 | effective | – | – | – | – | – | –
CC(=O)c1ccc(N2CCN(CCCCn3ccn4c5c(=O)n(C)c(=O)n(C)c5nc34)CC2)cc1 [Compound 9, 8-(4-(4-(4-Acetylphenyl)piperazin-1-yl)butyl)-1,3-dimethyl-1H-imidazo[2,1-f]purine-2,4(3H,8H)-dione] | 252 to 253 | 72.8 ± 6.08 | 145 ± 3.76 | 101 ± 15.4 | 153 ± 11.3 | – | – | – | – | – | – | –
CC(=O)c1ccc(N2CCN(CCCCn3c(C)cn4c5c(=O)n(C)c(=O)n(C)c5nc34)CC2)cc1 [Compound 10, 8-(4-(4-(4-Acetylphenyl)piperazin-1-yl)butyl)-1,3,7-trimethyl-1H-imidazo[2,1-f]purine-2,4(3H,8H)-dione] | – | 96.1 ± 5.32 | 131 ± 12.6 | 86.1 ± 9.85 | > 200 | – | – | – | – | – | – | –
CC(=O)c1ccc(N2CCN(CCCCCn3ccn4c5c(=O)n(C)c(=O)n(C)c5nc34)CC2)cc1 [Compound 11, 8-(5-(4-(4-Acetylphenyl)piperazin-1-yl)pentyl)-1,3-dimethyl-1H-imidazo[2,1-f]purine-2,4(3H,8H)-dione] | – | 58.6 ± 4.91 | 97.7 ± 10.7 | 60.28 ± 0.4 | > 200 | – | – | – | – | – | – | –
CC(=O)c1ccc(N2CCN(CCCCn3c(=O)ccn4c5c(=O)n(C)c(=O)n(C)c5nc34)CC2)cc1 [Compound 12, 9-(4-(4-(4-Acetylphenyl)piperazin-1-yl)butyl)-1,3-dimethylpyrimido[2,1-f]purine-2,4,8(1H,3H,9H)-trione] | – | 83.9 ± 4.2 | 169 ± 22.9 | 71.9 ± 9.85 | > 200 | – | – | – | – | – | – | –
CC(=O)c1ccc(N2CCN(CCCCCn3c(=O)ccn4c5c(=O)n(C)c(=O)n(C)c5nc34)CC2)cc1 [Compound 13, 9-(5-(4-(4-Acetylphenyl)piperazin-1-yl)pentyl)-1,3-dimethylpyrimido[2,1-f]purine-2,4,8(1H,3H,9H)-trione] | – | 126 ± 14.3 | > 200 | 94.2 ± 8.36 | > 200 | – | – | – | – | – | – | –
CC(=O)c1ccc(N2CCN(CCCCn3c(=O)c(Br)cn4c5c(=O)n(C)c(=O)n(C)c5nc34)CC2)cc1 [Compound 14, 9-(4-(4-(4-Acetylphenyl)piperazin-1-yl)butyl)-7-bromo-1,3-dimethylpyrimido[2,1-f]purine-2,4,8(1H,3H,9H)-trione] | – | 96.5 ± 4.93 | > 200 | 91 ± 5.86 | > 200 | – | – | – | – | – | – | –
CC(=O)c1ccc(NC(=O)Cn2c(Br)nc3c2c(=O)n(C)c(=O)n3C)cc1 [Compound 22e, N-(4-acetylphenyl)-2-[8-bromo-1,3-dimethyl-2,6-dioxo-2,3-dihydro-1H-purin-7(6H)-yl]acetamide] | – | – | – | – | – | – | – | – | – | – | – | moderate growth inhibition
COc1cccc2c1C(=O)c1c(O)c3c(c(O)c1C2=O)C[C@@](O)(C(=O)CO)C[C@@H]3O[C@H]1C[C@H](N)[C@H](O)[C@H](C)O1 [Doxorubicin, reference compound] | – | 0.24 ± 0.03 | – | 0.59 ± 0.02 | 0.29 ± 0.08 | – | – | – | – | – | – | –
